Results from EP2476410A1, “An analgesic peptide-containing composition for transbuccal administration” (priority 2011, dated 2012).
“Also recorded” adds a separate entry of the source. Like-named read-outs stand apart in the source and are kept apart here. Marks after values point to notes of the source that are not given here. Where a SMILES comes first, the peptide text is derived from it.

Key:
[1] = cited from earlier work
Swiss albino mice [2] = test: GI motility (charcoal transit distance); assay type: in vivo; conditions: 30 min post-drug
Procedure: Swiss albino mice (30-35 g) were injected with saline, the peptide (5 mg/kg, 50 mg/kg intraperitoneal) or morphine (0.5 mg/kg, 5 mg/kg, 50 mg/kg intraperitoneal). The experimenters are blind to the identity of the solutions. All mice were administered 5 mg charcoal (0.1 ml of 50 mg/ml charcoal solution) via oral gavage immediately after drug administration. At 30 min post- drug / charcoal administration, the mice were sacrificed by cervical dislocation and the GI tract was exposed and the location of the charcoal identified. The distance the charcoal traveled in the intestine from the stomach was measured and expressed as % of total length of the GI tract.

Swiss albino mice [3] = test: Spontaneous locomotor activity; assay type: in vivo
Procedure: Swiss albino mice (∼30 - 40 g) were first placed into their respective chambers with a 20 min pre-treatment recording. Only mice showing at least 50 counts / 5 min are used in the experiments. Mice were administered saline (control), peptide (5 or 50 mg/kg) or morphine (50 mg/kg). Experimenters were blind to the identity of the drug solutions. After drug administration, the animals were placed into their individual chambers and their spontaneous locomotor activity was recorded by video tracking and the data were recorded for a period of 4 h. Statistical comparison was done by 2-way ANOVA.

Swiss albino mice [4] = test: Acetic acid-induced writhing model; assay type: in vivo; conditions: 1 mg/kg, intraperitoneal
Procedure: Swiss albino mice (20-25 g, male) were administered with the peptide and at the appropriate post- dose time acetic acid (0.9% solution) was injected intraperitoneally (10 ml/kg). The mice were then placed in a transparent observer box and the total number of writhes per animal in the 15 min period after injection of acetic acid was recorded. A writhe is typically characterized by contractions of the abdominal musculature followed by extension of the hind limbs. Statistical comparison was done by either Student's t-test or one-way ANOVA.
At 1 h post administration time, acetic acid (0.9% solution) was injected intraperitoneally and the total number of writhes per animal was recorded, as described above. Upon completion of the experiment the animals were sacrificed and skull exposed. The accuracy of the injection was confirmed via injection of methyl-blue dye into the injection aperture left by the original injection. Only results from mice showing coloration of the ventricles are accepted.

Swiss albino mice [5] = test: Rotarod test; assay type: in vivo
Procedure: Swiss albino mice (∼20-30 g) were first trained on the rotarod, which accelerated from 0-20 rpm over 5 min, prior to the experiment. Only mice that were capable of staying on the rotarod for the entire 5 min period were used in this experiment. Mice were either administered with the peptide (1 or 10 mg/kg, sublingual), or morphine (20 mg/kg, subcutaneous). After drug administration, the animals are placed on the rotarod and the time taken for the mice to slip was recorded (up to 5 min), and subsequently at 1h, 2h and 3h post peptide, and at 30 min, 1h30 min and 2h30 min post morphine. Statistical comparison was done by either Student's t-test or one-way ANOVA.

Swiss albino mice [6] = test: Hot plate model; assay type: in vivo; conditions: intraperitoneal administration, 30 min post-dose, positive control
rats [7] = test: Elevated-plus maze test; assay type: in vivo
Description: The Elevated-Plus Maze Test is generally used to assess anxiety level of rodents due to their natural aversion for height. Two opposite arms of the elevated-plus maze are enclosed by high walls (closed arms) while the other two are not (open arms). The test animals (rats) naturally prefer and spend more time in the closed arms.

rats [8] = test: Open-field test (anxiety score); assay type: in vivo
Description: The open field test is generally used to assess anxiety level of rodents due to their natural aversion of open space and thus their preference to stay near the side rather than venturing to the more open central part of the open field.
The open field was divided into 16 equal size squares (25 x 25 cm). The 4 squares at the centre are assigned a low anxiety score (0) while those at the 4 corners are assigned a high anxiety score (2). The remaining 8 squares are assigned a medium score (1). A rat entering each square will be given the score assigned to that square. The sum total obtained within the 5-min test period divided by the number of squares entered is the anxiety score for that rat. Diazepam was used as positive control. Statistical comparison was done by Student's t-test.

mice = test: Acute high dose toxicity (oral and intravenous); assay type: in vivo
Procedure: Acute toxicity was determined by both oral and intravenous administration of the peptide. Three mice were given a dose of peptide at 2 g/kg orally by gavage, 5 ml/kg.

Swiss albino mice [9] = test: Toxicity, multiple dose regimen, once daily for 14 days; assay type: in vivo; conditions: for Appearance / Body Weight Day 1 / Body Weight Day 14 / Death: Intraperitoneal, daily
Procedure: Swiss albino mice were administered with the peptide at 8 mg/kg or 80 mg/kg (intraperitoneal) once daily for 14 days. Control mice received saline. At the end of the period, all mice were killed, dissected and observed for any obvious abnormality. Weights of the major organs, including brain, heart, lung, liver, spleen and kidney, were recorded.

Swiss albino mice [10] = test: Toxicity, single dose regimen, 14 days observation; assay type: in vivo; conditions: for Appearance / Body Weight Day 1 / Body Weight Day 14 / Death: intraperitoneal, single dose
Procedure: Swiss albino mice were administered with the peptide at 8 mg/kg or 80 mg/kg (intraperitoneal) on day 1 and then observed for 14 days. Control mice received saline.
At the end of the period, all mice were sacrificed, dissected and observed for any obvious abnormality. Weights of the major organs, including brain, heart, lung, liver, spleen and kidney, were recorded.

Sprague-Dawley rats = test: Acute effect on blood pressure, heart rate and respiration rate in anesthetized rats; assay type: in vivo; conditions: 5 and 20 mg/kg
Procedure: Sprague-Dawley rats (∼300 g) were anesthetized and the carotid artery was cannulated for blood pressure measurement. Drugs were administered by the pre-determined route. A pulse transducer was secured across the thoracic region of the rat to allow measurement of respiration rate. Blood pressure was recorded for at least 15 min or until a relatively stable blood pressure was observed.

[11] = Pharmacokinetics: plasma concentration and bioavailability by route (LC/MS/MS); assay type: in vivo, mice; conditions: for bioavailability: AUC compared to intravenous route
Procedure: The peptide (1, 5, 15 and 25 mg/kg, 0.5 ml/kg) was administered sublingually to mice. Upon reaching specified time points of 1, 5, 15, 30, 60 and 120 min post-dose, each mouse was sacrificed and blood samples were collected via cardiac puncture. Plasma samples were then extracted and analyzed under LC/MS/MS. Systemic exposure of the peptide was also studied through intravenous, oral (gavage) and intraperitoneal routes.

[12] = sublingual route (oxytocin in physiological saline solution)
[13] = 125 mg/kg, intravenous, only the 5 mice that survived

Compound: desmopressin
- bioavailability [1, 12]: about 0.25%

Compound: CN1CC[C@]23c4c5ccc(O)c4O[C@H]2[C@@H](O)C=C[C@H]3[C@H]1C5 [Morphine, morphine]
- GI transit distance (Swiss albino mice [2]; 0.5 to 50 mg/kg intraperitoneal): dose-dependently decreased GI motility; also recorded: dose dependent inhibitory effect
- locomotive activities (Swiss albino mice [3]; 50 mg/kg, intraperitoneal, between 60 min and 220 min post drug administration): significant increase in locomotive activities
- Time to first writhe (Swiss albino mice [4]): 190.75* % saline control
- Total writhes in 15 min (Swiss albino mice [4]): 38.18* % saline control
- Writhes in first 5 min (Swiss albino mice [4]): 12.5* % saline control
- Writhes in subsequent 10 min (Swiss albino mice [4]): 48.56* % saline control
- rotarod performance (time to slip) (Swiss albino mice [5]; 20 mg/kg, subcutaneous, 30 min, 1h30 min and 2h30 min post dose): No statistical significant effects
- rotarod performance (time to slip) (Swiss albino mice [5]; 20 mg/kg, subcutaneous, 30 min post drug administration, p=0.056): near significant decrease in performance
- ED50 (Swiss albino mice [6]; Mus musculus, ip, 0.5 h): 0.82 mg/kg
- Emax (Swiss albino mice [6]): 250 % of pre-dose latency

Compound: CN1C(=O)CN=C(c2ccccc2)c2cc(Cl)ccc21 [diazepam]
- times spent in open and closed arms (rats [7]; compared to DMSO-controls): reversed the times spent in open and closed arms
- anxiety score (rats [8]; positive control): decreased the anxiety score significantly

Compound: C[C@@H](O)[C@H](NC(=O)[C@@H]1CCCN1C(=O)[C@H](Cc1ccccc1)NC(=O)[C@@H]1CCCN1C(=O)[C@@H](N)CC(N)=O)C(=O)N[C@@H](Cc1c[nH]c2ccccc12)C(=O)N[C@@H](CCCNC(=N)N)C(=O)N[C@@H](CCCCN)C(=O)N[C@@H](CCCNC(=N)N)C(=O)N1CCC[C@H]1C(=O)NCC(=O)O [the peptide, NPFPTWRKRPG] (H-NPFPTWRKRPG-OH)
- GI transit distance (Swiss albino mice [2]; 5 mg/kg and 50 mg/kg intraperitoneal): did not show any significant reduction
- GI transit distance (Swiss albino mice [2]; 5 mg/kg and 50 mg/kg intraperitoneal, listed as The peptide): does not show any significant effect
- locomotive activities (Swiss albino mice [3]; 5 or 50 mg/kg, within 4 h of drug administration, compared to control): no significant difference
- Body Weight (g, 2 weeks postdose) (mice; 62.5 mg/kg, intravenous): 34.7 ± 1.5 g
- Body Weight (g, predose) (mice; 62.5 mg/kg, intravenous): 30.0 ± 1.0 g
- behaviour after administration (mice; 62.5 mg/kg, intravenous): appeared sedated after peptide but recovered after several hours
- mice that died (mice; 125 mg/kg intravenous): four out of nine
- time to death (mice; 125 mg/kg intravenous): 5 to 10 min
- behaviour of surviving mice (mice; 125 mg/kg intravenous, five surviving mice): appeared heavily sedated for several hours
- Body Weight (g, 2 weeks postdose) (mice; [13]): 33.6 ± 1.5 g
- Body Weight (g, predose) (mice; [13]): 28.6 ± 1.3 g
- behaviour after administration (mice; 2 g/kg oral by gavage): appeared sedated with much decreased activity
- time to recovery from sedation (mice; 2 g/kg oral, listed as peptide): about 1 h
- Body Weight (g, 2 weeks postdose) (mice; 2g/kg, oral): 33.0 ± 1.7 g
- Body Weight (g, predose) (mice; 2g/kg, oral): 29.3 ± 1.5 g
- time to recovery from sedation (mice; 2g/kg, oral): ≤ 1 h
- LD50 (mice; administered intravenously, mice): about 125 mg/kg
- Appearance (Swiss albino mice [9]; 8 mg/kg): normal
- Body Weight Day 1 (Swiss albino mice [9]; 8 mg/kg): 21.4 ± 0.8 g
- Body Weight Day 14 (Swiss albino mice [9]; 8 mg/kg): 30.0 ± 0.4 g
- Death (Swiss albino mice [9]; 8 mg/kg): nil
- Death (Swiss albino mice [9]; 8 mg/kg, listed as peptide): death of one mouse
- Appearance (Swiss albino mice [9]; 80 mg/kg): normal
- Body Weight Day 1 (Swiss albino mice [9]; 80 mg/kg): 21.3 ± 0.5 g
- Body Weight Day 14 (Swiss albino mice [9]; 80 mg/kg): 28.1 ± 1.2 g
- Death (Swiss albino mice [9]; 80 mg/kg): Nil
- organ appearance and weights (Swiss albino mice [9]; 8 or 80 mg/kg intraperitoneal once daily for 14 days): All organs appeared normal and no differences in weight were observed
- obvious toxicity (Swiss albino mice [9]; multiple high doses up to 80 mg/kg for 14 days): did not cause any obvious toxicity
- Appearance (Swiss albino mice [10]; 8 mg/kg): normal
- Body Weight Day 1 (Swiss albino mice [10]; 8 mg/kg): 26.2 ± 0.4 g
- Body Weight Day 14 (Swiss albino mice [10]; 8 mg/kg): 31.7 ± 0.5 g
- Death (Swiss albino mice [10]; 8 mg/kg): nil
- Appearance (Swiss albino mice [10]; 80 mg/kg): normal
- Body Weight Day 1 (Swiss albino mice [10]; 80 mg/kg): 25.8 ± 0.6 g
- Body Weight Day 14 (Swiss albino mice [10]; 80 mg/kg): 31.1 ± 0.7 g
- Death (Swiss albino mice [10]; 80 mg/kg): Nil
- organ appearance and weights (Swiss albino mice [10]; single dose 8 or 80 mg/kg intraperitoneal, day 14): All organs appeared normal and no differences in weight were observed
- obvious toxicity (Swiss albino mice [10]; single high dose up to 80 mg/kg): did not cause any obvious toxicity
- time spent in the open or closed arms (rats [7]; 1 or 50 mg/kg, 30 min or 3 h post-dose, compared to saline): did not produce any significant changes
- anxiety scores (rats [8]; intraperitoneally, 1 or 50 mg/kg, compared to saline control): did not show any effect on the anxiety scores
- blood pressure (Sprague-Dawley rats; intravenous route): dose dependent drop
- blood pressure (Sprague-Dawley rats; intravenous route, listed as Peptide): decreased in blood pressure
- blood pressure (Sprague-Dawley rats; sublingual or intraperitoneal routes): no change in blood pressure
- blood pressure (Sprague-Dawley rats; sublingual or intraperitoneal routes, listed as peptide): did not cause any changes in blood pressure
- plasma concentration ([11]; 1 hour after administration, other routes of administration): approximately undetectable
- bioavailability ([11]; intraperitoneal route): 0.5%
- level at 1 h ([11]; mouse, plasma, 25 mg/kg, 1 hour after administration, sublingual route): > 100 ng/mL
- bioavailability ([11]; mouse, plasma, ip, intraperitoneal route, read-out: bioavailability): 0.5%
- bioavailability ([11]; mouse, plasma, oral route, read-out: bioavailability): 4%
- bioavailability ([11]; oral route): 4%
- bioavailability ([11]; sublingual route): 44%
- plasma concentration ([11]; sublingual, doses below 5 mg/kg, by 30 min after administration): negligible
- rotarod performance (time to slip) (Swiss albino mice [5]; 1 or 10 mg/kg, sublingual, 1h, 2h and 3h post dose): No statistical significant effects

Compound: oxytocin
- bioavailability ([1]; formulation with 0.75% w/w sodium taurocholate (tablet form)): 27%
- bioavailability [1, 12]: 0.007-0.07%
- bioavailability ([1]; sublingual route (oxytocin in physiological saline solution), listed as Oxytocin): 0.007 - 0.07%
